Data reported in patent publication US6685913B1, “Lipid soluble radioactive metal chelates for tumor therapy” (Thomas Jefferson University, priority 1999, dated 2004).
“Also recorded” adds a separate entry of the source.

Experiments:
[1] = Retention of radioactivity after intratumoral injection, first study (gamma camera, ionization chamber); assay type: in vivo, athymic nude mice
[2] = Distribution of radioactivity in tumor and organs at sacrifice; assay type: in vivo, nude mice
Source text: (§1) These organs were then weighed.

[3] = Body weight, additional studies; assay type: in vivo, nude mice; details: treatment period
Experimental: Human prostate and human breast tumors were grown in two separate groups of nude mice. Six mice in each group were divided in two subgroups of 3 mice each. Three mice were treated with intratumoral injections of either Indium-111-oxine or Indium-111-Merc. Each group of mice was then placed in rodent cages separately and cared for with regular diet and water ad lib. Each day the animals were weighed, and tumor diameter was measured three times with a Vernier caliper.

[4] = system: human colorectal carcinoma cells LS174T; details: single intratumoral injection, day 22, control tumor 3.2 cm
Experimental: Tumors were allowed to grow to approximately 0.5 cm in diameter.
On day one, two of the four tumor-bearing mice received a single intratumoral injection of approximately 100 μl Indium-111-oxine. Mice were placed in an ionization chamber, and radioactivity was recorded after the injection and then daily for 28 days. On each day, radioactivity was corrected for decay, and the percent of injected dose retained in the animal was calculated and recorded. Animals were also weighed daily in a calibrated balance.
On day one, all four mice were lightly anesthetized and photographs taken. Mice receiving Indium-111-oxine were also imaged with a gamma camera 28 days later. This qualitatively recorded the distribution of radioactivity, 28 days after it was injected.The control animals received a single intratumoral injection of 100 μl of 25% ethanol in 0.9% NaCl. Two radioactive animals and the control animals were then cared for in two separated cages and allowed to eat and drink at liberty.
On day 22, the two mice treated with Indium-111-oxine received 100 μl of Indium-111-Merc each in two places in tumors. The control animals also received two intratumoral injection of 0.05 M phosphate buffer pH−7.4.
As before, the mice were weighed daily and radioactivity remaining in their bodies was measured for an additional 10 days.

[5] = system: human prostate cancer cells DU145; details: one month
Experimental: Additional feasibility studies were performed using two lipid soluble agents, Indium-111-oxine and Indium-111-Mercaptopyridine-N-oxide (Merc). Human prostate and human breast tumors were grown in two separate groups of nude mice. Six mice in each group were divided in two subgroups of 3 mice each. Three mice were treated with intratumoral injections of either Indium-111-oxine or Indium-111-Merc. Each group of mice was then placed in rodent cages separately and cared for with regular diet and water ad lib. Each day the animals were weighed, and tumor diameter was measured three times with a Vernier caliper.
Radioactivity received by each animal was carefully measured, and each day the amount of radioactivity retained in the animal body was measured using an energy calibrated radiation dose calibrator. Two weeks after the first injection, a second dose of the same agent was readministered, also intratumorally and the procedure was followed as described above, for the next two weeks. […] Indium-111 associated with each tissue was counted, and the radioactivity distributed in each organ was calculated as the percent of the total radioactivity retrained in each animal. Histology on critical organs, such as the liver, bladder, and kidney, as well as tumor histology, was assessed in treated animals and in untreated control animals. […]

cells = details: cited from earlier work
[6] = system: human breast cancer cells T47D; assay: Intratumoral injection study on T47D tumor-bearing nude mice: tumor size; assay type: in vivo; details: one month
Experimental: as §1
Indium-111-Merc was prepared also by a method described previously. (Thakur et al, J Nucl Med 26: 518-523, 1985). Briefly, to one ml 0.067 M phosphate buffer pH 7.4, a required quantity of Indium-111-chloride was added followed by 50 μg Merc in 50 μl 0.067 M phosphate buffer pH 7.4. The reaction mixture was vortexed, and resultant Indium-111-Merc was extracted in chloroform or methylene chloride. This was evaporated to dryness, and the complex was taken up in 50 μl ethanol and 150 μl 0.9% NaCl. A known amount of radioactivity in 50 μl was then injected directly into the tumor in each mouse.
For treatment with Indium-111-Merc, human breast cancer cells (5×10^6) T47D were implanted similarly. These were also allowed to grow to up to 0.5 cm in diameter.

[7] = cited from earlier work

| Compound | radioactivity retained in the tumor (gamma camera image) ([1]; 22 days after intratumoral Indium-111-oxine injection) | kidney uptake at sacrifice ([2]; DU145 tumor-bearing mice) [%] | liver uptake at sacrifice ([2]; DU145 tumor-bearing mice) [%] | injected activity retained in tumor at sacrifice ([2]; DU145 tumor-bearing mice, corrected for decay) [%] | body weight change ([3]; DU145 tumor-bearing mice, on the average) | tumor growth in treated animal [4] | tumor growth in treated mice (tumor size versus time, FIG. 4) ([5]; DU145 tumor-bearing nude mice) | average tumor growth during the treatment period ([5]; DU145 tumors, two intratumoral doses two weeks apart, untreated mice 200%) [%] | labeling of cells in the presence of plasma (cells) | radioactivity still in the tumor (gamma camera image) ([1]; 10 days after intratumoral Indium-111-Merc injection) | radioactivity retained in animal body ([1]; ten days after the injection of Indium-111-Merc) | tumor growth in treated mice (tumor size versus time, FIG. 5) ([6]; T47D tumor-bearing nude mice) | average tumor growth in the treated mice ([6]; T47D tumors, two intratumoral doses two weeks apart, untreated controls 477%) [%] | injected activity retained in tumor at sacrifice ([2]; T47D tumor-bearing mice) [%] | kidney activity at sacrifice ([2]; T47D tumor-bearing mice) [%] | liver activity at sacrifice ([2]; T47D tumor-bearing mice) [%] | body weight change ([3]; T47D tumor-bearing mice) | stability in plasma [7] |
| --- | --- | --- | --- | --- | --- | --- | --- | --- | --- | --- | --- | --- | --- | --- | --- | --- | --- | --- |
| [111In+3].[O-]c1cccc2cccnc12.[O-]c1cccc2cccnc12.[O-]c1cccc2cccnc12 [Indium-111-oxine, Indium-111-oxine (8-hydroxyquinoline)] | a major proportion; also recorded: nearly all | 7.5 | 5.4 | 86.5 | none of the treated or untreated mice either gained or lost body weight | has not grown | arrested | 117 | not capable of binding cells in plasma; also recorded: cannot efficiently label cells |  |  |  |  |  |  |  |  |  |
| Indium-111-Merc (2-Mercaptopyridine-N-oxide) |  |  |  |  |  |  |  |  | can label cells in the presence of plasma | a major proportion | all | arrested | 172 | 92.97 | 4.03 | 1.02 | gained some body weight | does not break down in plasma |
